From patent US6706664B1, “Benzoxazole compounds, process for the preparation thereof and herbicides” (UBE Industries, Ltd., priority 1999, dated 2004)

Tests used:
Parameters in all cases: key: 0: normal development; 1: Less damaged; 2: Slightly damaged; 3: Moderately damaged; 4: Severely damaged; 5: All killed
[1] = test system: young rice plant; experiment: Herbicidal test for paddy field; assay type: in vivo; details: paddy field pot, 500 g/ha dropwise at 1.5 leaf stage of barnyardgrass, 3 weeks, rank vs non-treated
Outline: (§1)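 Post-flooding water application of 500 g/ha, given at 1.5-leaf barnyardgrass, to plants in Ube alluvial soil held under 3 cm of water. Ratings of 0 to 5 relative to untreated controls were made after three weeks in a glasshouse.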

[2] = test system: barnyardgrass; experiment: Herbicidal test for paddy field; assay type: in vivo, Echinochloa crusgalli; details: paddy field pot, 500 g/ha dropwise at 1.5 leaf stage of barnyardgrass, 3 weeks, rank vs non-treated
Outline: as §1

[3] = test system: barnyardgrass; experiment: Soil treatment test for upland field; assay type: in vivo, Echinochloa crusgalli; details: 500 g/ha, glass house 25° C., 3 weeks
Outline: (§2)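 Pre-emergence: seeds sown in Ube alluvial soil in pots, then soil surface sprayed with wettable-powder formulation diluted in water with 0.05% surfactant at 500 g/ha. Plants kept in glasshouse at average 25° C for 3 weeks; injury scored 0 (normal) to 5 (all killed).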

[4] = test system: green foxtail; experiment: Soil treatment test for upland field; assay type: in vivo, Setaria viridis; details: 500 g/ha, glass house 25° C., 3 weeks
Outline: as §2

[5] = test system: blackgrass; experiment: Soil treatment test for upland field; assay type: in vivo, Alopecurus aegualis; details: 500 g/ha, glass house 25° C., 3 weeks
Outline: as §2

[6] = test system: annual bluegrass; experiment: Soil treatment test for upland field; assay type: in vivo, Poa annua; details: 500 g/ha, glass house 25° C., 3 weeks
Outline: as §2

[7] = test system: common lambsquartes; experiment: Soil treatment test for upland field; assay type: in vivo, Chenopodium album; details: 500 g/ha, glass house 25° C., 3 weeks
Outline: as §2

[8] = test system: velvetleaf; experiment: Soil treatment test for upland field; assay type: in vivo, Abutilon theophrasti; details: 500 g/ha, glass house 25° C., 3 weeks
Outline: as §2

[9] = test system: corn; experiment: Foliar spread test for upland field; assay type: in vivo; details: foliar spray 500 ppm, 3 weeks, rank vs non-treated
Outline: (§3)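 Seeds are planted in pots of volcanic ash soil and grown roughly 2 weeks under glass. Foliage then receives a uniform spray of compound at 500 ppm in water with 0.5% surfactant. Herbicidal damage is rated 0–5 after 3 weeks at an average 25° C.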

[10] = test system: solgum; experiment: Foliar spread test for upland field; assay type: in vivo; details: foliar spray 500 ppm, 3 weeks, rank vs non-treated
Outline: as §3

[11] = test system: sugar beat; experiment: Foliar spread test for upland field; assay type: in vivo; details: foliar spray 500 ppm, 3 weeks, rank vs non-treated
Outline: as §3

[12] = test system: wheat; experiment: Foliar spread test for upland field; assay type: in vivo; details: foliar spray 500 ppm, 3 weeks, rank vs non-treated
Outline: as §3

[13] = test system: green foxtail; experiment: Foliar spread test for upland field; assay type: in vivo, Setaria viridis; details: foliar spray 500 ppm, 3 weeks, rank vs non-treated
Outline: as §3

[14] = test system: blackgrass; experiment: Foliar spread test for upland field; assay type: in vivo, Alopecurus aegualis; details: foliar spray 500 ppm, 3 weeks, rank vs non-treated
Outline: as §3

[15] = test system: annual bluegrass; experiment: Foliar spread test for upland field; assay type: in vivo, Poa annua; details: foliar spray 500 ppm, 3 weeks, rank vs non-treated
Outline: as §3

[16] = test system: common lambsquartes; experiment: Foliar spread test for upland field; assay type: in vivo, Chenopodium album; details: foliar spray 500 ppm, 3 weeks, rank vs non-treated
Outline: as §3

[17] = test system: livid amaranth; experiment: Foliar spread test for upland field; assay type: in vivo, Amaranthus lividus; details: foliar spray 500 ppm, 3 weeks, rank vs non-treated
Outline: as §3

[18] = test system: velvetleaf; experiment: Foliar spread test for upland field; assay type: in vivo, Abutilon theophrasti; details: foliar spray 500 ppm, 3 weeks, rank vs non-treated
Outline: as §3

[19] = test system: morning glory; experiment: Foliar spread test for upland field; assay type: in vivo, Ipomoea spps.; details: foliar spray 500 ppm, 3 weeks, rank vs non-treated
Outline: as §3

| SMILES | Effect Young rice plant [1] | Effect Barnyardgrass [2] | Effects Barnyardgrass [3] | Effects Green foxtail [4] | Effects Blackgrass [5] | Effects Annual bluegrass [6] | Effects Common lambsquarters [7] | Effects Velvetleaf [8] | Effects Corn [9] | Effects Solgum [10] | Effects Sugar beat [11] | Effects Wheat [12] | Effects Green foxtail [13] | Effects Blackgrass [14] | Effects Annual bluegrass [15] | Effects Common lambsquarters [16] | Effects Livid amaranth [17] | Effects Velvetleaf [18] | Effects Morning glory [19] |
| --- | --- | --- | --- | --- | --- | --- | --- | --- | --- | --- | --- | --- | --- | --- | --- | --- | --- | --- | --- |
| CCC(Oc1cccc(OC(F)(F)F)c1)c1nc2cc([N+](=O)[O-])ccc2o1 (centres unmarked) [Compound 450] | 1 | 4 | 5 | 5 | 5 | 5 | 4 | 5 | 3 | 3 | 5 | 2 | 3 | 3 | 4 | 4 | 4 | 3 | 2 |
| CCCC(Oc1ccc(F)c(C(F)(F)F)c1)c1nc2cc(C#N)c(Cl)cc2o1 (centres unmarked) [Compound 533] | 2 | 5 | 3 | 5 | 4 | 4 | 5 | 5 | 2 | 2 | 5 | 2 | 4 | 3 | 4 | 4 | 5 | 2 | 5 |
